Tests used:
Type in all cases: cell-based, human
UACC-257 = assay: SRB anti-cancer assay, Melanoma; details: UACC-257 (Melanoma), 48 h
KM12 = assay: SRB anti-cancer assay, Colon Cancer; details: 48 h
SW-620 = assay: SRB anti-cancer assay, Colon Cancer; details: SW-620 (Colon Cancer), 48 h
T-47D = assay: SRB anti-cancer assay, Breast Cancer; details: T-47D (Breast Cancer), 48 h
UACC-62 = assay: SRB anti-cancer assay, Melanoma; details: UACC-62 (Melanoma), 48 h
A549/ATCC = A549/ATCC (Non-Small Cell Lung Cancer), 48 h
NCI/ADR-RES = assay: SRB anti-cancer assay, Breast Cancer; details: 48 h
SNB-19 = assay: SRB anti-cancer assay, CNS Cancer; details: SNB-19 (CNS Cancer), 48 h
OVCAR-4 = assay: SRB anti-cancer assay, Ovarian Cancer; details: OVCAR-4 (Ovarian Cancer), 48 h
M14 = assay: SRB anti-cancer assay, Melanoma; details: 48 h
UO-31 = assay: SRB anti-cancer assay, Renal Cancer; details: UO-31 (Renal Cancer), 48 h
SN12C = assay: SRB anti-cancer assay, Renal Cancer; details: 48 h
ACHN = assay: SRB anti-cancer assay, Renal Cancer; details: 48 h
HCC-2998 = assay: SRB anti-cancer assay, Colon Cancer; details: HCC-2998 (Colon Cancer), 48 h
CAKI-1 = assay: SRB anti-cancer assay, Renal Cancer; details: CAKI-1 (Renal Cancer), 48 h
SK-OV-3 = assay: SRB anti-cancer assay, Ovarian Cancer; details: SK-OV-3 (Ovarian Cancer), 48 h
HOP-62 = HOP-62 (Non-Small Cell Lung Cancer), 48 h
MDA-N = assay: SRB anti-cancer assay, Breast Cancer; details: 48 h
RPMI-8226 = assay: SRB anti-cancer assay, Leukemia; details: RPMI-8226 (Leukemia), 48 h
OVCAR-5 = assay: SRB anti-cancer assay, Ovarian Cancer; details: OVCAR-5 (Ovarian Cancer), 48 h
EKVX = EKVX (Non-Small Cell Lung Cancer), 48 h
OVCAR-8 = assay: SRB anti-cancer assay, Ovarian Cancer; details: OVCAR-8 (Ovarian Cancer), 48 h
MDA-MB-435 = assay: SRB anti-cancer assay, Breast Cancer; details: MDA-MB-435 (Breast Cancer), 48 h
DU-145 = assay: SRB anti-cancer assay, Prostate Cancer; details: DU-145 (Prostate Cancer), 48 h
NCI-H23 = NCI-H23 (Non-Small Cell Lung Cancer), 48 h
CCRF-CEM = assay: SRB anti-cancer assay, Leukemia; details: 48 h
SNB-75 = assay: SRB anti-cancer assay, CNS Cancer; details: SNB-75 (CNS Cancer), 48 h
SF-295 = assay: SRB anti-cancer assay, CNS Cancer; details: SF-295 (CNS Cancer), 48 h
786-0 = assay: SRB anti-cancer assay, Renal Cancer; details: 786-0 (Renal Cancer), 48 h
SR = assay: SRB anti-cancer assay, Leukemia; details: 48 h
[1] = read-out: LC50 (the source's name)

`N=c1nc(N)c2ncn([C@@H]3O[C@H](CO)[C@@H](O)[C@H]3O)c2c(N)n1` [Compound 14-2, 4,8-Diamino-6H-6-imino-1-β-D-ribofuranosylimidazo[4,5-e][1,3]diazepine] gave a GI50 (UACC-257) of 12.7 µM, a TGI (UACC-257) of 25.8 µM and a CC50 (UACC-257; [1]) of 52.3 µM. The GI50 (KM12) was 18.6 µM, the LC50 (KM12) was over 100 µM and the TGI (KM12) was 59.3 µM. The GI50 (SW-620) was 17.2 µM, the TGI (SW-620) was over 100 µM and the CC50 (SW-620; [1]) was over 100 µM. The GI50 (T-47D) was 13.3 µM, the TGI (T-47D) was 39.6 µM and the CC50 (T-47D; [1]) was over 100 µM. For the same molecule, the GI50 (UACC-62) was 2.88 µM, the TGI (UACC-62) was 16.2 µM and the CC50 (UACC-62; [1]) was 56.3 µM. It also gave a GI50 (A549/ATCC) of 22.3 µM, a TGI (A549/ATCC) of 58.4 µM and a CC50 (A549/ATCC; [1]) of over 100 µM. For the same molecule, the GI50 (NCI/ADR-RES) was 23.4 µM, the TGI (NCI/ADR-RES) was 67.6 µM and the CC50 (NCI/ADR-RES; [1]) was over 100 µM. For the same molecule, the GI50 (SNB-19) was 17.1 µM, the TGI (SNB-19) was 51.5 µM and the CC50 (SNB-19; [1]) was over 100 µM. It also gave a GI50 (OVCAR-4) of 16.7 µM, a TGI (OVCAR-4) of 35.6 µM and a CC50 (OVCAR-4; [1]) of 76.1 µM. It also gave a GI50 (M14) of 11.5 µM, a TGI (M14) of 24.3 µM and a CC50 (M14; [1]) of 51.1 µM. The GI50 (UO-31) was 13.7 µM, the TGI (UO-31) was 28.9 µM and the CC50 (UO-31; [1]) was 61.2 µM. The GI50 (SN12C) was 14.5 µM, the TGI (SN12C) was 29.8 µM and the CC50 (SN12C; [1]) was 61.2 µM. It also gave a GI50 (ACHN) of 12.3 µM, a TGI (ACHN) of 27.2 µM and a CC50 (ACHN; [1]) of 59.9 µM. It also gave a GI50 (HCC-2998) of 16.4 µM, a TGI (HCC-2998) of 30.8 µM and a CC50 (HCC-2998; [1]) of 58 µM. The GI50 (CAKI-1) was 20.3 µM, the TGI (CAKI-1) was 71 µM and the CC50 (CAKI-1; [1]) was over 100 µM. The GI50 (SK-OV-3) was 51.8 µM, the TGI (SK-OV-3) was over 100 µM and the CC50 (SK-OV-3; [1]) was over 100 µM. The GI50 (HOP-62) was 28.5 µM, the LC50 (concentration for 50% net cell kill) (HOP-62) was over 100 µM and the TGI (HOP-62) was over 100 µM. It also gave a GI50 (MDA-N) of 12.5 µM, a TGI (MDA-N) of 26.1 µM and a CC50 (MDA-N; [1]) of 54.5 µM. It also gave a GI50 (RPMI-8226) of 32.8 µM, a TGI (RPMI-8226) of over 100 µM and a CC50 (RPMI-8226; [1]) of over 100 µM. For the same molecule, the GI50 (OVCAR-5) was 16.8 µM, the TGI (OVCAR-5) was 32.7 µM and the CC50 (OVCAR-5; [1]) was 64 µM. For the same molecule, the GI50 (EKVX) was 14.3 µM, the TGI (EKVX) was 27.3 µM and the CC50 (EKVX; [1]) was 52.3 µM. For the same molecule, the GI50 (OVCAR-8) was 13.2 µM, the LC50 (50% lethal concentration) (OVCAR-8) was 75.3 µM and the TGI (OVCAR-8) was 31.5 µM. For the same molecule, the GI50 (MDA-MB-435) was 12.8 µM, the TGI (MDA-MB-435) was 29.1 µM and the CC50 (MDA-MB-435; [1]) was 65.9 µM. For the same molecule, the GI50 (DU-145) was 15 µM, the TGI (DU-145) was 30.2 µM and the CC50 (DU-145; [1]) was 60.7 µM. It also gave a GI50 (NCI-H23) of 16.8 µM, a TGI (NCI-H23) of 33.4 µM and a CC50 (NCI-H23; [1]) of 66.2 µM. For the same molecule, the GI50 (CCRF-CEM) was 59 µM, the TGI (CCRF-CEM) was over 100 µM and the CC50 (CCRF-CEM; [1]) was over 100 µM. For the same molecule, the GI50 (SNB-75) was 27.9 µM, the LC50 (concentration killing 50% of cells) (SNB-75) was over 100 µM and the TGI (SNB-75) was 99.1 µM. For the same molecule, the GI50 (SF-295) was 24.7 µM, the TGI (SF-295) was 63.7 µM and the CC50 (SF-295; [1]) was over 100 µM. The GI50 (786-0) was 15.7 µM, the TGI (786-0) was 47 µM and the GI50 (SR) was over 100 µM. It also gave an LC50 (concentration killing 50% of cells) (SR) of over 100 µM and a TGI (SR) of over 100 µM.
